One assay concerns the target PIKFYVE (Homo sapiens, UniProt Q9Y2I7). As to the kind of experiment: Eurofins kinase assay service (Kd). It is filed as binding. On the procedure: Supplementary Fig. 2 UNI418 inhibits PIP5K1B/C and PIKfyve. a Inhibition graph of PIP5K1 kinases at the 10 point titration with UNI418. IC 50 value of PIP5K1 kinases was analyzed by Thermo Fisher Scientific’s SelectScreen kinase profiling service. b Kd (nM) values of PIP5K1C and PIKfyve inhibition were determined using the Eurofins kinase assay service.
(1 picture or pasted object on this page, not shown here)

For a further assay, the system named is RPE1 cells. As to the kind of experiment: Autophagic flux assay (LC3-II turnover with bafilomycin A1). It is filed as cell-based. The note with it: 1 μM, 2 h, normal growth media. The text has this: Fig. 2 UNI418 inhibits autophagy. a Western blot analysis of p62, LC3B-I, LC3B-II and GAPDH in the presence of UNC3230, apilimod and UNI418. b Immunofluorescence staining with LC3B (green) and p62 (red) antibodies upon treatment with UNC3230, apilimod and UNI418, and images within the white rectangular boxes are magnified on the right side. Scale bar, 20 µm. c The area of fluorescence intensity from immunofluorescence images (b) was quantified after UNC3230, apilimod and UNI418 treatments. d, e Quantification of autophagic flux under normal conditions and under HBSS-induced starvation conditions with or without UNI418 treatment. […]
The whole cell extracts were prepared by lysis of harvested cells with M -PER Mammalian protein extraction reagent (Thermo Fisher Scientific). The protein concentrations were determined by Bradford protein assay (Bio- Rad). […] The images were obtained and quantified by Fusion solo ChemiDoc system (Vilber).
Autophagic flux assay was analyzed essentially as previously described1,2.
Briefly, RPE1 cells were treated with UNI418 (0, 0.5, or 1 µM) for 2 h with/without bafilomycin A1 to inhibit lysosomal degradation under normal growth media or HBSS. […] The LC3- II bands were quantified using Fusion Solo ChemiDoc system (Vilber) and normalized to GAPDH bands. […]

For assay [1], the system named is HEK293T cells stably expressing mCherry-GFP-LC3. Description: mCherry-GFP-LC3 tandem fluorescent protein quenching assay. The note with it: 0.5 μM, within 6 h. The class given is cell-based. Here is the method:
HEK293T cells at a density of 1.6 × 10^4 cells per well in 96-well plates (Nunc) were stained with Hoechst (Cayman Chemical Company, 33342) for 10 min. The cells were washed with PBS two times and incubated with prewarmed media supplemented with 10% FBS. Cells were treated with UNI418 in prewarmed media. Images were acquired in a time-dependent manner and quantified with an ImageXpress high-content screening system (Molecular Devices, San Jose, CA, USA).
Fig. 3 UNI418 negatively affects autophagosome-lysosome fusion and endosome acidification. a Live-cell imaging of HEK293T cells stably expressing mCherry-GFP-LC3 treated with 0.5 μM UNI418 at the indicated time points; the images within the white rectangular boxes are magnified on the right side. Scale bar, 30 µm. The number (b) and area (c) of GFP-positive dots per cell were quantified by ImageXpress. d Immunofluorescence images illustrating the inhibition of endolysosomal acidification by UNI418. Vero cells were treated with the mock control or 1 µM UNC3230, apilimod or UNI418 for 1 h at 37 °C. […] The cells were analyzed by confocal microscopy using two emission wavelengths at 493–560 (green) and 590–720 nm (red) after excitation at 488 nm. […] The green-to-red fluorescence intensity ratio (e) and the area of fluorescent spots (f) were quantified. b, c, e, f The data are presented as the means ± SEMs, with a minimum of 200 spots. […]

PIKFYVE, sequence (Q9Y2I7 whole entry): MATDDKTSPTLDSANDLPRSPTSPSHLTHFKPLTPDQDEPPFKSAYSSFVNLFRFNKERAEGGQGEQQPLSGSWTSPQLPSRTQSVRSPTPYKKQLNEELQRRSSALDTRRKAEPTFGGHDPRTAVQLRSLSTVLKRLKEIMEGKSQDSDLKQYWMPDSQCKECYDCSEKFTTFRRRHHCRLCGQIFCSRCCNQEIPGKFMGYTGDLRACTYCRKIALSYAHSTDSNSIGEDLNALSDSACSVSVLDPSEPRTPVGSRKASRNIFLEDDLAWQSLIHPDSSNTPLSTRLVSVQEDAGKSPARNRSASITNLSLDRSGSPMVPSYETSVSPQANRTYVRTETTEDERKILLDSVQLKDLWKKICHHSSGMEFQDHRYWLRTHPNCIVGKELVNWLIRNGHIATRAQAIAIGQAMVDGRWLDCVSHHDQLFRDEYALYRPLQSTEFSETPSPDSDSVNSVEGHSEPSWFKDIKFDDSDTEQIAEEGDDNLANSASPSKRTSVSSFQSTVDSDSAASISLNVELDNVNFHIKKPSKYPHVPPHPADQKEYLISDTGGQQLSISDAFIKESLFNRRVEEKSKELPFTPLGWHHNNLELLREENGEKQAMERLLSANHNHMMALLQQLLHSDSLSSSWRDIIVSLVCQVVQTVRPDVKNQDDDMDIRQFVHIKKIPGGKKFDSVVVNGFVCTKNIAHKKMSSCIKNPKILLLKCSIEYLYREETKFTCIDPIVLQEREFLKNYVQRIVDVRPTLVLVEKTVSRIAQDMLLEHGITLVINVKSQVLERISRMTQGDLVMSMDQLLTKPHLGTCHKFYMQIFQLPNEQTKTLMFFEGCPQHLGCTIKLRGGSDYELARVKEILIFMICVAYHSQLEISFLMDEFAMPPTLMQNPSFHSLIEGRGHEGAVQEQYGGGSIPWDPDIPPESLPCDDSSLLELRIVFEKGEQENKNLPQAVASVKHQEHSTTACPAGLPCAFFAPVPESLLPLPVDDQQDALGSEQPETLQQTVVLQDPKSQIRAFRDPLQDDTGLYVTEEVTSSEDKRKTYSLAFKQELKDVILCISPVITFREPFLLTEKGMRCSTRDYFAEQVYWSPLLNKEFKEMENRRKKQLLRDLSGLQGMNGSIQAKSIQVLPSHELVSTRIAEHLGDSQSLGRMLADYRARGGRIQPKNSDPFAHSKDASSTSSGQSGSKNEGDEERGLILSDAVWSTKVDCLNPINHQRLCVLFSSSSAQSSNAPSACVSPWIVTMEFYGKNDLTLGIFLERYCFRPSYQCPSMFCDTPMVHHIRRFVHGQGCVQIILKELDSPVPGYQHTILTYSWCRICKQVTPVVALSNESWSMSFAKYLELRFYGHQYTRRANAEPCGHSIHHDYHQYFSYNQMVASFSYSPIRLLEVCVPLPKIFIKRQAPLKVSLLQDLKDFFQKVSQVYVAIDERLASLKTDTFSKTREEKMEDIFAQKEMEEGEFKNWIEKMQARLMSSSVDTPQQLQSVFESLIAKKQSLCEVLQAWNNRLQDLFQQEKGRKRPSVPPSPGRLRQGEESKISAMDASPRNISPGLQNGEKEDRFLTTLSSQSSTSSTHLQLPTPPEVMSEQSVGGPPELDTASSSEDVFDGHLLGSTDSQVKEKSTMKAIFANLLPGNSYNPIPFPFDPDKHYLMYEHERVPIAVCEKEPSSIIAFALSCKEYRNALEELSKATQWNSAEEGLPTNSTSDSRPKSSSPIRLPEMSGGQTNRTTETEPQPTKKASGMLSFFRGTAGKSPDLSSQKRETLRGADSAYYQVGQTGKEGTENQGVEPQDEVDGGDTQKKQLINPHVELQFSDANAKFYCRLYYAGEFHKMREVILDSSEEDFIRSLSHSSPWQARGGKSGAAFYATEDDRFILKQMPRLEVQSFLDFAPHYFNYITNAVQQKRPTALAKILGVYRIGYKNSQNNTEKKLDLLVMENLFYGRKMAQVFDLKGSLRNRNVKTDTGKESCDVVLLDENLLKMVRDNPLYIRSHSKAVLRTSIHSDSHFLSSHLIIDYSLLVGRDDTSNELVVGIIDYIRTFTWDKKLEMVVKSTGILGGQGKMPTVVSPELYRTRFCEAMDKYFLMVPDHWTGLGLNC

With `c1ccc(-c2cc(Nc3nc(-c4ccncc4)nc4ccccc34)n[nH]2)cc1` [UNI418, N -(5-phenyl-1 H -pyrazol-3-yl)-2-(4-pyridinyl)-4-quinazolinamine], the Kd (as a rule, a measure of binding affinity in units of concentration) on PIKFYVE stood at 0.78 nM. Moreover, the autophagic flux result in the assay with RPE1 cells is “markedly inhibited”. Moreover, the “number of nonacidic autophagosomes” value in assay [1] is on record as “considerably increased”.

(Values after PMC11372076, “A dual inhibitor of PIP5K1C and PIKfyve prevents SARS-CoV-2 entry into cells” (Experimental & Molecular Medicine, 2024).)
